One assay deals with DGKζ (Homo sapiens (Human), UniProt Q13574). Briefly: Biochemical DGK IC50 assay, DGKζ ADP-Glo assay. The settings on record: 0.5 nM enzyme, 140 μM ATP, 80 μM DAG; read-out: DGKζ ADP-Glo assay IC50. In short, it runs like this:
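Full-length human DGKζ, His-TEV tagged and purified from baculovirus-infected Sf9 cells, assayed by ADP-Glo with DAG/PS lipid micelle substrate prepared in 25 mM HEPES pH 7.0 with octyl glucoside. Final compound concentrations spanned 1.55–10000 nM or 23.3–150000 nM.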
(ADP-Glo first removes unused ATP, then detects ADP through luciferase.)

A further assay deals with DGKα (Homo sapiens (Human), UniProt P23743). The assay is described as follows: Biochemical DGK IC50 assay, DGKα ADP-Glo assay. Particulars: 7.5 nM enzyme, 140 μM ATP, 80 μM DAG. In short, it runs like this:
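ADP-Glo read-out with full-length DGKα on DAG/PS lipid micelle substrate in 25 mM HEPES pH 7.0, 0.5 mM EDTA, 160 mM octyl β-D-glucopyranoside. Compound final concentrations spanned 1.55˜10000 nM or 23.3˜150000 nM.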

A value given as a limit tells only on which side of the number the result lay.

DGKα, sequence (P23743 whole entry): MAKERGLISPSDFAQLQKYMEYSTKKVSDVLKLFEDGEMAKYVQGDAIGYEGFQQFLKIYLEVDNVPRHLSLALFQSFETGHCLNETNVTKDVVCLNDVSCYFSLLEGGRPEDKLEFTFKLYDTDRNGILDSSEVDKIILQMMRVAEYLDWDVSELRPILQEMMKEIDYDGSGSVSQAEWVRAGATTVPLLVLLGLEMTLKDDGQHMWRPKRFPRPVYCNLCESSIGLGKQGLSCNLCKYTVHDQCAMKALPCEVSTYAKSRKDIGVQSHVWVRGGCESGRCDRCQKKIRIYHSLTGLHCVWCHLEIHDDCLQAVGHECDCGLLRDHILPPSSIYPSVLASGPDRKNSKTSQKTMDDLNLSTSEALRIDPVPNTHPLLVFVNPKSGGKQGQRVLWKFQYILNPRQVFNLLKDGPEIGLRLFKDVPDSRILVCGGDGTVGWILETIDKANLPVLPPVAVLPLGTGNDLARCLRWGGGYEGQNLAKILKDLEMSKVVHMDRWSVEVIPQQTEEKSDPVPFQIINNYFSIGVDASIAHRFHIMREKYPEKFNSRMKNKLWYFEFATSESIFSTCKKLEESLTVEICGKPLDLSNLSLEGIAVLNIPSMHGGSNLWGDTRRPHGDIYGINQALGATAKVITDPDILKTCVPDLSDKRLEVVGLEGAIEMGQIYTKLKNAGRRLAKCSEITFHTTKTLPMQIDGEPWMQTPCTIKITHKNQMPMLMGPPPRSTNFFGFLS
DGKζ, sequence (Q13574 other isoform, or with tags, fused parts or gaps): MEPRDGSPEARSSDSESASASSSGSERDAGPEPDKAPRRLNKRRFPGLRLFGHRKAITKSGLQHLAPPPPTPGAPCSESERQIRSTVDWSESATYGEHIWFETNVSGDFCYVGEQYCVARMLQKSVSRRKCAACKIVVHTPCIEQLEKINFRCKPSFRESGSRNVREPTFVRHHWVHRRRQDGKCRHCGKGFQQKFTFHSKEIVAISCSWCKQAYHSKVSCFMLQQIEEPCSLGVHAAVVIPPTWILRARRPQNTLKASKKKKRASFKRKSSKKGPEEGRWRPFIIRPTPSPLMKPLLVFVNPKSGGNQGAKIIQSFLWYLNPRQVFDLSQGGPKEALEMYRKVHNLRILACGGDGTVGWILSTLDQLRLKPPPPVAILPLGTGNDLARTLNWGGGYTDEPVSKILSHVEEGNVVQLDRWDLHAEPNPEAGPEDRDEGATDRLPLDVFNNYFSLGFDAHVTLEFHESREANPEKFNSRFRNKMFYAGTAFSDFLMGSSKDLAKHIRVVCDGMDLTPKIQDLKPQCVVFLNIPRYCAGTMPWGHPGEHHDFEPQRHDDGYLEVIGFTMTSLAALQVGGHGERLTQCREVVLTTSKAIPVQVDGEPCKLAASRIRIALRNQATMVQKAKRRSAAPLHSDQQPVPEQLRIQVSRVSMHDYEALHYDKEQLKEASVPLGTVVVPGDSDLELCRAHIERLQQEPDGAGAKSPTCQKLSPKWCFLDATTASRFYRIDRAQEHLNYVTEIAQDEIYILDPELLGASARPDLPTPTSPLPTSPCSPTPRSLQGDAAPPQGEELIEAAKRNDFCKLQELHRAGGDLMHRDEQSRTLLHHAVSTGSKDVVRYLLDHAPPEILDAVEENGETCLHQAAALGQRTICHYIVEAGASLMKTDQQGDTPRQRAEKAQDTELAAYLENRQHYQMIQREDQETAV

By IC50 is commonly meant the point on the concentration scale where inhibition reaches its midpoint. For `CC(c1ccc2nccnc2c1)N1C[C@H](CO)N(c2cc(=O)n(C)c3cn(CC#N)nc23)C[C@H]1C` (stereo partly drawn) [Compound A101, 2-(7-((2R,5R)-2-(hydroxymethyl)-5-methyl-4-(1-(quinoxalin-6-yl)ethyl)piperazin-1-yl)-4-methyl-5-oxo-4,5-dihydro-2H-pyrazolo[4,3-b]pyridin-2-yl)acetonitrile], the IC50 was 707 nM at DGKζ and over 10000 nM at DGKα.

In the case of `COC(=O)C1CN(c2cc(=O)n(C)c3cn(CC#N)nc23)CCN1[C@@H](C)c1ccc2nccnc2c1` (single isomer, unassigned) [Compound A173a], the IC50 at DGKζ was 502 nM; against DGKα, over 10000 nM.

On to `CC[C@@H]1CN(c2cc(=O)n(C)c3cn(CC#N)nc23)[C@@H](CC)CN1C(=O)c1cc2cnccc2cn1` [Compound A371], for which the concentration for half-maximal inhibition (IC50) at DGKζ is over 10000 nM; against DGKα, 717 nM.

Turning to `COc1c(C(C)N2C[C@H](C)N(c3cc(=O)n(C)c4cn(CC#N)nc34)C[C@H]2C)ccc(F)c1F` (stereo partly shown) [Compound A273], the results for the IC50 at DGKζ and at DGKα were 5550 nM and over 10000 nM, respectively.

For `CC[C@H]1CN(C(C)c2cc(C(F)(F)F)nn2CC)[C@H](CC)CN1c1cc(=O)n(C)c2cn(CC#N)nc12` (stereo partly shown) [Compound A211], the IC50 amounted to 234 nM on DGKζ and 2760 nM against DGKα.

For the molecule `CC[C@H]1CN(C(C)c2ccc(C(F)F)cn2)[C@H](CC)CN1c1cc(=O)n(C)c2cn(CC#N)nc12` (single isomer, unassigned) [Compound A347b], the values for the half-maximal inhibitory concentration (IC50) on DGKζ and against DGKα were 223 nM and 8 nM, respectively.

As for `CC[C@H]1CN(C(C)c2nc3cc(C(F)(F)F)ccc3n2CC)[C@H](CC)CN1c1cc(=O)n(C)c2cn(CC#N)nc12` (single isomer, unassigned) [Compound A203b], the IC50 on DGKζ is 233 nM; against DGKα, over 10000 nM.

Consider `CC(c1ccc2nccnc2c1)N1C[C@H](C)N(c2cc(=O)n(C)c3cn(C(C)C#N)nc23)C[C@H]1C` (stereo partly shown) [Compound A8], for which the half-maximal inhibitory concentration (IC50) came out at 570 nM at DGKζ and 31000 nM against DGKα.

Take `CC[C@H]1CN(C(C)c2nc3ccc(C(F)(F)F)cc3n2CC)[C@H](CC)CN1c1cc(=O)n(C)c2cn(CC#N)nc12` (single isomer, unassigned) [Compound A204a]: the IC50 at DGKζ was 3290 nM; against DGKα it was over 10000 nM.

In the case of `Cc1cnc2ccc([C@H](C)N3C[C@H](C)N(c4c(C#N)c(=O)n(C)c5cn(CC#N)nc45)C[C@H]3C)cc2n1` [Compound A318, 2-(cyanomethyl)-7-((2S,5R)-2,5-dimethyl-4-((S)-1-(3-methylquinoxalin-6-yl)ethyl)piperazin-1-yl)-4-methyl-5-oxo-4,5-dihydro-2H-pyrazolo[4,3-b]pyridine-6-carbonitrile], the values for the IC50 on DGKζ and on DGKα were 15 nM and 6490 nM, respectively.

Take `CC[C@H]1CN(C(C)c2ccc(OC(C)C)cn2)[C@H](CC)CN1c1cc(=O)n(C)c2cn(CC#N)nc12` (stereo partly shown) [Compound A140]: the figures for the IC50 on DGKζ and on DGKα were 189 nM and 82 nM, respectively.

Regarding `CC[C@H]1CN(C(C)c2cnn(C)c2C(F)(F)F)[C@H](CC)CN1c1cc(=O)n(C)c2cn(CC#N)nc12` (stereo partly drawn) [Compound A233, 2-(7-((2S,5R)-2,5-diethyl-4-(1-(1-methyl-5-(trifluoromethyl)-1H-pyrazol-4-yl)ethyl)piperazin-1-yl)-4-methyl-5-oxo-4,5-dihydro-2H-pyrazolo[4,3-b]pyridin-2-yl)acetonitrile], the figures for the IC50 at DGKζ and against DGKα were 33 nM and 6980 nM, respectively.

Regarding `CC[C@H]1CN(C(C)c2ccc(F)cc2Cl)[C@H](CC)CN1c1cc(=O)n(C)c2cn(CC#N)nc12` (stereo partly shown) [Compound A116], the IC50 at DGKζ turned out to be 146 nM; against DGKα, 5760 nM.

With `COCc1cc(C(C)N2C[C@H](C)N(c3cc(=O)n(C)c4cn(CC#N)nc34)C[C@H]2C)ccc1F` (stereo partly shown) [Compound A30], the IC50 at DGKζ was determined as 110 nM; on DGKα, 5100 nM.

In the case of `Cc1cnc2ccc(N(C)C3CC(C)N(c4cc(=O)n(C)c5cn(CC#N)nc45)CC3C)cc2n1` (stereo not shown) [Compound A298, 2-(7-(2,5-dimethyl-4-(methyl(3-methylquinoxalin-6-yl)amino)piperidin-1-yl)-4-methyl-5-oxo-4,5-dihydro-2H-pyrazolo[4,3-b]pyridin-2-yl)acetonitrile], the IC50 at DGKζ was 8910 nM; against DGKα, over 150000 nM.

Turning to `CC[C@H]1CN(C(C)c2nc3ccccc3n2CCO)[C@H](CC)CN1c1cc(=O)n(C)c2cn(CC#N)nc12` (stereo partly shown) [Compound A214], the IC50 at DGKζ is 3430 nM; at DGKα it was over 10000 nM.

`CC(c1ccc2ncc(Cl)nc2c1)N1C[C@H](C)N(c2cc(=O)n(C)c3cn(CC#N)nc23)C[C@H]1C` (stereo partly drawn) [Compound A280, 2-(7-((2S,5R)-4-(1-(3-chloroquinoxalin-6-yl)ethyl)-2,5-dimethylpiperazin-1-yl)-4-methyl-5-oxo-4,5-dihydro-2H-pyrazolo[4,3-b]pyridin-2-yl)acetonitrile]: the IC50 at DGKζ was determined as 34 nM; on DGKα, 26000 nM.

For the molecule `CC[C@H]1CN(C(C)c2ccc(C(F)(F)F)cc2)[C@H](CC)CN1c1cc(=O)n(C)c2cn(CC#N)nc12` (single isomer, unassigned) [Compound A103a], the IC50 at DGKζ worked out at 241 nM; against DGKα, 403 nM.

As for `[2H]C([2H])([2H])n1c(=O)cc(N2C[C@@H](CC)N(C(C)c3ccc4nccnc4c3)C[C@@H]2CC)c2nn(CC#N)cc21` (stereo partly shown) [Compound A51], the figures for the concentration for half-maximal inhibition (IC50) at DGKζ and on DGKα were 7.8 nM and 347 nM, respectively.

With `CC[C@H]1CN(C(C)c2c(F)cccc2F)[C@H](CC)CN1c1cc(=O)n(C)c2cn(CC#N)nc12` (stereo partly shown) [Compound A83], the IC50 was 170 nM at DGKζ and 81 nM against DGKα.

`CC#CCn1cc2c(n1)c(N1C[C@@H](CC)N(C(C)c3ccc4cccnc4c3)C[C@@H]1C)cc(=O)n2C` (stereo partly shown) [Compound A395]: the IC50 on DGKζ stood at 272 nM; against DGKα, 222 nM.

As for `CC[C@H]1CN(C(C)c2ccc(F)cc2C2CC2)[C@H](CC)CN1c1cc(=O)n(C)c2cn(CC#N)nc12` (stereo partly shown) [Compound A175], the 50% inhibitory concentration (IC50) on DGKζ was 305 nM; against DGKα, over 10000 nM.

Consider `CC#CCn1cc2c(n1)c(N1C[C@@H](CC)N(C(C)c3ccc4nccnc4c3)C[C@@H]1CC)cc(=O)n2C` (stereo partly drawn) [Compound A23, 2-(but-2-yn-1-yl)-7-((2S,5R)-2,5-diethyl-4-(1-(quinoxalin-6-yl)ethyl)piperazin-1-yl)-4-methyl-2,4-dihydro-5H-pyrazolo[4,3-b]pyridin-5-one], for which the IC50 at DGKζ was 57 nM; against DGKα it was 120 nM.

For `CC[C@H]1CN(C(C)c2ccc(C(F)(F)F)cc2F)[C@H](CC)CN1c1cc(=O)n(C)c2c[nH]nc12` (single isomer, unassigned) [Compound A231a], the IC50 on DGKζ is over 10000 nM; against DGKα it was 1120 nM.

Take `CC[C@@H]1CN(c2cc(=O)n(C)c3cn(CC#N)nc23)[C@@H](COC)CN1C(C)c1ccc2nccnc2c1` (stereo partly drawn) [Compound A225, 2-(7-((2R,5R)-5-ethyl-2-(methoxymethyl)-4-(1-(quinoxalin-6-yl)ethyl)piperazin-1-yl)-4-methyl-5-oxo-4,5-dihydro-2H-pyrazolo[4,3-b]pyridin-2-yl)acetonitrile]: the 50% inhibitory concentration (IC50) worked out at 99 nM at DGKζ and 7450 nM on DGKα.

With `CC=CCn1cc2c(n1)c(N1C[C@@H](C)N([C@@H](C)c3ccc4ncc(C)nc4c3)C[C@@H]1C)cc(=O)n2C` [Compound A302, 2-(but-2-en-1-yl)-7-((2S,5R)-2,5-dimethyl-4-((S)-1-(3-methylquinoxalin-6-yl)ethyl)piperazin-1-yl)-4-methyl-2,4-dihydro-5H-pyrazolo[4,3-b]pyridin-5-one], the figures for the half-maximal inhibitory concentration (IC50) at DGKζ and on DGKα were 68 nM and 35400 nM, respectively.

Consider `CC[C@H]1CN(C(C)c2nc3cccc(C(F)(F)F)c3n2CC)[C@H](CC)CN1c1cc(=O)n(C)c2cn(CC#N)nc12` (single isomer, unassigned) [Compound A230a], for which the IC50 is 1440 nM on DGKζ and over 10000 nM against DGKα.

Regarding `CC[C@H]1CN(C(C)c2ccc(OCC3COC3)cc2)[C@H](CC)CN1c1cc(=O)n(C)c2cn(CC#N)nc12` (stereo partly shown) [Compound A379], the concentration for half-maximal inhibition (IC50) is 571 nM on DGKζ and 294 nM on DGKα.

Turning to `COc1cc(F)c(C(C)N2C[C@H](C)N(c3cc(=O)n(C)c4cn(CC#N)nc34)C[C@H]2C)c(F)c1` (stereo partly shown) [Compound A32], the IC50 at DGKζ worked out at 230 nM; at DGKα it was 1200 nM.

With `C[C@@H]1CN(c2cc(=O)n(C)c3c(Cl)n(CC#N)nc23)[C@@H](C)CN1[C@H](C)c1ccc2nccnc2c1` [Compound A263, 2-(3-chloro-7-((2S,5R)-2,5-dimethyl-4-((R)-1-(quinoxalin-6-yl)ethyl)piperazin-1-yl)-4-methyl-5-oxo-4,5-dihydro-2H-pyrazolo[4,3-b]pyridin-2-yl)acetonitrile, or 2-(3-chloro-7-((2S,5R)-2,5-dimethyl-4-((S)-1-(quinoxalin-6-yl)ethyl)piperazin-1-yl)-4-methyl-5-oxo-4,5-dihydro-2H-pyrazolo[4,3-b]pyridin-2-yl)acetonitrile], the results for the concentration for half-maximal inhibition (IC50) on DGKζ and against DGKα were 85 nM and 41800 nM, respectively.

With `C=C(C)n1cc2c(n1)c(N1C[C@@H](CC)N(Cc3ccc(OC(F)(F)F)cc3)C[C@@H]1CC)cc(=O)n2C` [Compound A27], the figures for the IC50 on DGKζ and against DGKα were over 10000 nM and 4.3 nM, respectively.

Take `CC(c1ccc(F)cc1C(C)(F)F)N1C[C@H](C)N(c2cc(=O)n(C)c3cn(CC#N)nc23)C[C@H]1C` (stereo partly drawn) [Compound A254, 2-(7-((2S,5R)-4-(1-(2-(1,1-difluoroethyl)-4-fluorophenyl)ethyl)-2,5-dimethylpiperazin-1-yl)-4-methyl-5-oxo-4,5-dihydro-2H-pyrazolo[4,3-b]pyridin-2-yl)acetonitrile]: the figures for the IC50 at DGKζ and against DGKα were 307 nM and over 10000 nM, respectively.

(Values after US20240270751A1, “Pyrazolopyridinone Compounds” (BeiGene Ltd., priority 2021, published 2024).)
